Source: patent US20210238192A1, “VASCULAR ADHESION PROTEIN-1 (VAP-1) MODULATORS AND THERAPEUTIC USES THEREOF” (Blade Therapeutics, Inc., priority 2018, published 2021)

Columns and labels:
Assay type in all cases: biochemical
Human MAO-B = molecular target: T1, Human MAO-B (Homo sapiens, UniProt P27338); assay: MAO-B inhibition (Amplex Red continuous fluorescence assay); conditions: 30 min pre-incubation at room temp; substrate benzylamine; read-out: Human MAO-B IC50
T1 sequence (P27338 1-520): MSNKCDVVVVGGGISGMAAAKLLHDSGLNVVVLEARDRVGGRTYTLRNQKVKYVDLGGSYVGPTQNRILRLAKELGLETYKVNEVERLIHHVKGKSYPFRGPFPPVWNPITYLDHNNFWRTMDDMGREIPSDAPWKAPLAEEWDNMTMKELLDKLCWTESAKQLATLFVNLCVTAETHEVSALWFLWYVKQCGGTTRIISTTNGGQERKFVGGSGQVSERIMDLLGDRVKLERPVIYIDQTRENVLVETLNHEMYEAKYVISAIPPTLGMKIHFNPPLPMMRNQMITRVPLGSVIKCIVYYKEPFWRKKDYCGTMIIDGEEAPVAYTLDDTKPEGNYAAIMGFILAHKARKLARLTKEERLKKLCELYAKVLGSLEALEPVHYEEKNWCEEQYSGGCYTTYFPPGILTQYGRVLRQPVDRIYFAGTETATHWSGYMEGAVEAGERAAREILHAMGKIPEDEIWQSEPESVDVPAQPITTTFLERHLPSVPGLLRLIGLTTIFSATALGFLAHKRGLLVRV
How it was run: (§1)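 Continuous Amplex Red/HRP fluorescence read of H2O2 (ex/em 510/565 nm, 5 min). Substrates and buffers: VAP-1 benzylamine, […] sodium phosphate pH 7.4, 30 min 37° C preincubation; MAO-A tyramine and MAO-B benzylamine, same buffer, room temp; DAO histamine, 50 mM HEPES pH 7.5, room temp. IC50 from 4-parameter fit of rates.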

Human MAO-A = molecular target: T2, Human MAO-A (Homo sapiens, UniProt P21397); assay: MAO-A inhibition (Amplex Red continuous fluorescence assay); conditions: 30 min pre-incubation at room temp; substrate tyramine; read-out: Human MAO-A IC50
T2 sequence (P21397 1-527): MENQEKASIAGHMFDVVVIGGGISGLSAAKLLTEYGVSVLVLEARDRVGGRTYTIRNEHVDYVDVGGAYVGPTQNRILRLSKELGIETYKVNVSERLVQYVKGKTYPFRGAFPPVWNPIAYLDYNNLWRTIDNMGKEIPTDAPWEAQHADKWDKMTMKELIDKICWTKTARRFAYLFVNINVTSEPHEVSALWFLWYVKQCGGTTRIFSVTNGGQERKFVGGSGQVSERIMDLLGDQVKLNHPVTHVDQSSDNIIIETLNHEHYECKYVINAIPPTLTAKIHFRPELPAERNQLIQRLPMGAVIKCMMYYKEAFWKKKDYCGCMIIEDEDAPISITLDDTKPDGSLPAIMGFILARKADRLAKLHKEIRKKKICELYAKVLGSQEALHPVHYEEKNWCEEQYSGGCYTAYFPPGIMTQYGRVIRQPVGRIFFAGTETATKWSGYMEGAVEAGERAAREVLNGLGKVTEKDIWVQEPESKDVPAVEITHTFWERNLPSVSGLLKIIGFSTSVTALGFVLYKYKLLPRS
How it was run: as §1

Human DAO = molecular target: T3, Human DAO (Homo sapiens, UniProt P19801); assay: DAO inhibition (Amplex Red continuous fluorescence assay); conditions: 30 min pre-incubation at room temp; substrate histamine; read-out: Human DAO IC50
T3 sequence (P19801 20-751): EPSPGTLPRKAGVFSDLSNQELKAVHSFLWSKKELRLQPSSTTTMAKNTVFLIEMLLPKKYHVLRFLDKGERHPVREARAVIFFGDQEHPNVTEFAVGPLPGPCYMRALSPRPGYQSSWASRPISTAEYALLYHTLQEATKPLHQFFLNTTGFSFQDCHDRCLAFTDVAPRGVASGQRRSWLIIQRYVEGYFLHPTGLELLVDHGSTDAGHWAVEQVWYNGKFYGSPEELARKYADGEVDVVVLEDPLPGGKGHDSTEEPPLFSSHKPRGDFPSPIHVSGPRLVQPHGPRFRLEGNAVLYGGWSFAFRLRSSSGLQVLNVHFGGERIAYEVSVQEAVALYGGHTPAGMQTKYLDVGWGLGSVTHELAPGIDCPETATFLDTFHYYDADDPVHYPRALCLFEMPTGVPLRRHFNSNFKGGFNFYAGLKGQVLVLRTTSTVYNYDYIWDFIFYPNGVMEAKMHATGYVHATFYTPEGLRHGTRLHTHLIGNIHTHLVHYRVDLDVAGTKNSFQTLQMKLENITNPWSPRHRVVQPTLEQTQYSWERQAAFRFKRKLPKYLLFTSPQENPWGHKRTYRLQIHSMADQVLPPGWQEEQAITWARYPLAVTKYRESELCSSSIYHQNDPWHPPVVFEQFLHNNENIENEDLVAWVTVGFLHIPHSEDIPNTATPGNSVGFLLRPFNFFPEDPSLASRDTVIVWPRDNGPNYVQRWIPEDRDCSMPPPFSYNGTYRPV
How it was run: as §1

Human VAP-1 = molecular target: T4, Human VAP-1 (Homo sapiens, UniProt Q16853); assay: VAP-1 inhibition assay (Amplex Red continuous fluorescence assay); conditions: 30 min pre-incubation at 37° C.; substrate benzylamine; read-out: Human VAP-1 IC50
T4 sequence (Q16853 1-763): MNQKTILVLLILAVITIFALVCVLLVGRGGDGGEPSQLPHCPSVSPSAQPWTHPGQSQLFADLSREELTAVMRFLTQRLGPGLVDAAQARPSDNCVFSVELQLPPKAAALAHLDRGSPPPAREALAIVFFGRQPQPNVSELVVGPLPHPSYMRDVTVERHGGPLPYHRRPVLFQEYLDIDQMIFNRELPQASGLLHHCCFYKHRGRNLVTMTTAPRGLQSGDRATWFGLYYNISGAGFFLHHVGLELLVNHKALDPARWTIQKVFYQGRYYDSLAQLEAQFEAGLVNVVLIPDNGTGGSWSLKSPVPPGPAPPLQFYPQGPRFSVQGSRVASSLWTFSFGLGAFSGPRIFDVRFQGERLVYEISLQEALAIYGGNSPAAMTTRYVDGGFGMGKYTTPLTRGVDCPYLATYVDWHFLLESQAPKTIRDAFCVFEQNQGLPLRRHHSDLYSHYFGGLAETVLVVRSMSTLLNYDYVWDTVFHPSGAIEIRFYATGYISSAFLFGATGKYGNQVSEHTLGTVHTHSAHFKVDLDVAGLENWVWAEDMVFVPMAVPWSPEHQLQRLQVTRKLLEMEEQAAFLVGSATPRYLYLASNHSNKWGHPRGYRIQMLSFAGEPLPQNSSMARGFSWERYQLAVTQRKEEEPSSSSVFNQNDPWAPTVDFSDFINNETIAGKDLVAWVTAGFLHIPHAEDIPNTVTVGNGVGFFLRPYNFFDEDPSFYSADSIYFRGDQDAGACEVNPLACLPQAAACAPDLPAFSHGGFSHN
How it was run: as §1

Structure (SMILES) | IC50 (Human MAO-B) [µM] | IC50 (Human MAO-A) [µM] | IC50 (Human DAO) [µM] | IC50 (Human VAP-1) [µM]
NC/C(=C/F)CNC(=O)Nc1ccccc1 [Compound 72] | > 10 | < 3 | < 3 | < 3
NC/C(=C\F)COc1ccc(C(=O)NCCOCCOCCOCCOCCOCCOCCOCCOCCOCCOCCOCCNC(=O)CCCCC2SCC3NC(=O)NC32)cc1 (stereo not drawn) [Compound 78] | > 10 | > 10 | < 3 | < 3
NC/C(=C\F)COc1cnc(N2CC[C@H](O)C2)nc1 [Compound 79] | 3 to 10 | > 10 | < 3 | < 3

The remaining lines, values ahead:

IC50 (Human MAO-B) [µM] | IC50 (Human MAO-A) [µM] | IC50 (Human DAO) [µM] | IC50 (Human VAP-1) [µM] | Structure (SMILES)
> 10 | > 10 | < 3 | < 3 | NC/C(=C/F)COc1cnc(N2CC[C@H](O)C2)nc1 [Compound 80]
> 10 | > 10 | < 3 | < 3 | CO[C@H]1CCN(c2ncc(OC/C(=C/F)CN)cn2)C1 [Compound 81]
< 3 | 3 to 10 | 3 to 10 | < 3 | CCC(=O)Nc1ccc(OC/C(=C/F)CN)cc1 [Compound 82, (E)-N-(4-((2-(aminomethyl)-3-fluoroalkyl)oxy)phenyl)propionamide]
